# Results taken from patent publication US6737383B1, “Herbicidal oxadiazolidines” (priority 1999, dated 2004).
# Tests used:
# surinam grass = experiment: Test B pre/postemergence surinam grass; assay type: in vivo, Brachiaria decumbens
# How it was run: (§1)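 Herbicidal effect was estimated by eye on a ten-point control scale after plants spent twelve to sixteen days in a greenhouse following soil or foliar treatment. Foliar sprays targeted plants at one to four leaves; all doses were formulated in a non-phytotoxic solvent with surfactant.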
# giant foxtail = experiment: Test B pre/postemergence giant foxtail; assay type: in vivo, Setaria faberii
# How it was run: as §1
# bamyardgrass = experiment: Test B flood test barnyardgrass; assay type: in vivo, Echinochloa crus-galli
# Method: (§2) At the same time, these crop and weed species were also treated with postemergence applications of test chemicals formulated in the same manner. Plants ranged in height from 2 to 18 cm (1- to 4-leaf stage) for postemergence treatments. Plant species in the flood test consisted of rice (Oryza sativa), smallflower flatsedge (Cyperus difformis), duck salad (Heteranthera limosa) and bamyardgrass (Echinochloa crus-galli) grown to the 2-leaf stage for testing. Treated plants and controls were maintained in a greenhouse for twelve to sixteen days, after which all species were compared to controls and visually evaluated. Plant response ratings, summarized in Table B, are based on a scale of 0 to 10 where 0 is no effect and 10 is complete control. A dash (−) response means no test result.
# wild oat = experiment: Test B pre/postemergence wild oat; assay type: in vivo, Avena fatua
# How it was run: as §1
# sugar beet = experiment: Test B pre/postemergence sugar beet; assay type: in vivo, Beta vulgaris
# How it was run: as §1
# rape = experiment: Test B pre/postemergence rape; assay type: in vivo, Brassica napus
# How it was run: as §1
# purple nutsedge = experiment: Test B pre/postemergence purple nutsedge; assay type: in vivo, Cyperus rotundus
# How it was run: as §1
# bedstraw = experiment: Test B pre/postemergence bedstraw; assay type: in vivo, Galium aparine
# How it was run: as §1
# duck salad = experiment: Test B flood test duck salad; assay type: in vivo, Heteranthera limosa
# Method: as §2
# wheat = experiment: Test B pre/postemergence wheat; assay type: in vivo, Triticum aestivum
# How it was run: as §1
# morningglory = experiment: Test B pre/postemergence morningglory; assay type: in vivo, Ipomoea hederacea
# How it was run: as §1
# smallflower flatsedge = experiment: Test B flood test smallflower flatsedge; assay type: in vivo, Cyperus difformis
# Method: as §2
# corn = experiment: Test B pre/postemergence corn; assay type: in vivo, Zea mays
# How it was run: as §1
# cocklebur = experiment: Test B pre/postemergence cocklebur; assay type: in vivo, Xanthium strumarium
# How it was run: as §1
# velvetleaf = experiment: Test B pre/postemergence velvetleaf; assay type: in vivo, Abutilon theophrasti
# How it was run: as §1
# pigweed = experiment: Test B pre/postemergence pigweed; assay type: in vivo, Amaranthus retroflexus
# How it was run: as §1
# crabgrass = experiment: Test B pre/postemergence crabgrass; assay type: in vivo, Digitaria sanguinalis
# How it was run: as §1
# blackgrass = experiment: Test B pre/postemergence blackgrass; assay type: in vivo, Alopecurus myosuroides
# How it was run: as §1
# soybean = experiment: Test B pre/postemergence soybean; assay type: in vivo, Glycine max
# How it was run: as §1
# [1] = Postemergence, Rate 62 g/ha, scale of 0 to 10, 0 is no effect, 10 is complete control
# [2] = Postemergence, Rate 125 g/ha, scale 0 to 10, 0 is no effect, 10 is complete control
# [3] = Postemergence, Rate 500 g/ha, scale 0 to 10, 0 is no effect, 10 is complete control
# [4] = Preemergence, Rate 62 g/ha, scale of 0 to 10 where 0 is no effect and 10 is complete control
# [5] = Preemergence, Rate 125 g/ha, scale 0 to 10, 0 is no effect, 10 is complete control
# [6] = Rate 250 g/ha, Postemergence, scale of 0 to 10 where 0 is no effect and 10 is complete control
# [7] = Preemergence, Rate 500 g/ha, scale of 0 to 10 where 0 is no effect and 10 is complete control
# [8] = Rate 62 g/ha, flood test species, Pre-emergence, visual evaluation after twelve to sixteen days
# [9] = Rate 125 g/ha, under heading Pre-emergence, flood test species, visual evaluation after twelve to sixteen days
# [10] = Rate 250 g/ha, Pre-emergence (flood test species), scale 0 to 10, 0 is no effect, 10 is complete control
# [11] = Rate 500 g/ha, Pre-emergence section of Table B, 0 to 10 scale (0 no effect, 10 complete control)
smiles,measurement,setting,value
CCCCCn1c(=O)on(C(=O)N(c2ccc(Cl)cc2)C(C)C)c1=O [Compound 528],B. signalgrass plant response rating,surinam grass; [1],0
same,B. signalgrass plant response rating,surinam grass; [2],0
same,"Plant response rating, B. signalgrass",surinam grass; [3],0
same,"Plant response rating, B. signalgrass",surinam grass; [4],0
same,B. signalgrass plant response rating,surinam grass; [5],0
same,"B. signalgrass plant response rating (0 to 10 scale, 0 is no effect, 10 is complete control)","surinam grass; Preemergence, Rate 250 g/ha",0
same,"Plant response rating, B. signalgrass",surinam grass; [6],0
same,Giant foxtail plant response rating,giant foxtail; [1],0
same,Giant foxtail plant response rating,giant foxtail; [2],3
same,"Plant response rating, Giant foxtail",giant foxtail; [3],9
same,"Plant response rating, Giant foxtail",giant foxtail; [4],9
same,Giant foxtail plant response rating,giant foxtail; [5],10
same,Giant foxtail plant response rating (0 to 10 scale),"giant foxtail; Preemergence, Rate 250 g/ha",10
same,Giant foxtail plant response rating,giant foxtail; [7],10
same,"Plant response rating, Giant foxtail",giant foxtail; [6],3
same,"Plant response rating, Barnyardgrass (0 to 10 scale, 0 is no effect, 10 is complete control)",bamyardgrass; [8],0
same,"Barnyardgrass plant response rating (0 to 10 scale, 0 is no effect, 10 is complete control)",bamyardgrass; [9],0
same,Barnyardgrass plant response rating,bamyardgrass; [10],0
same,Barnyardgrass plant response rating,bamyardgrass; [11],0
same,Wild oats plant response rating,wild oat; [1],0
same,Wild oats plant response rating,wild oat; [2],0
same,"Plant response rating, Wild oats",wild oat; [3],0
same,"Plant response rating, Wild oats",wild oat; [4],0
same,Wild oats plant response rating,wild oat; [5],0
same,Wild oats plant response rating (0 to 10 scale),"wild oat; Preemergence, Rate 250 g/ha",0
same,"Plant response rating, Wild oats",wild oat; [6],0
same,Sugarbeets plant response rating,sugar beet; [1],0
same,Sugarbeets plant response rating,sugar beet; [2],0
same,"Plant response rating, Sugarbeets",sugar beet; [3],2
same,"Plant response rating, Sugarbeets",sugar beet; [4],0
same,Sugarbeets plant response rating,sugar beet; [5],0
same,Sugarbeets plant response rating (0 to 10 scale),"sugar beet; Preemergence, Rate 250 g/ha",0
same,"Plant response rating, Sugarbeets",sugar beet; [6],0
same,Rape plant response rating,rape; [1],0
same,Rape plant response rating,rape; [2],0
same,"Plant response rating, Rape",rape; [3],3
same,"Plant response rating, Rape",rape; [4],0
same,Rape plant response rating,rape; [5],0
same,Rape plant response rating (0 to 10 scale),"rape; Preemergence, Rate 250 g/ha",0
same,"Plant response rating, Rape",rape; [6],3
same,Nutsedge plant response rating,purple nutsedge; [2],0
same,"Plant response rating, Nutsedge",purple nutsedge; [3],6
same,"Plant response rating, Nutsedge",purple nutsedge; [4],0
same,Nutsedge plant response rating,purple nutsedge; [5],0
same,Nutsedge plant response rating (0 to 10 scale),"purple nutsedge; Preemergence, Rate 250 g/ha",0
same,Nutsedge plant response rating,purple nutsedge; [7],0
same,"Plant response rating, Nutsedge",purple nutsedge; [6],0
same,Bedstraw plant response rating,bedstraw; [1],0
same,Bedstraw plant response rating,bedstraw; [2],0
same,"Plant response rating, Bedstraw",bedstraw; [3],8
same,"Plant response rating, Bedstraw",bedstraw; [4],0
same,Bedstraw plant response rating,bedstraw; [5],0
same,Bedstraw plant response rating (0 to 10 scale),"bedstraw; Preemergence, Rate 250 g/ha",0
same,"Plant response rating, Bedstraw",bedstraw; [6],0
same,"Plant response rating, Ducksalad (0 to 10 scale, 0 is no effect, 10 is complete control)",duck salad; [8],0
same,"Ducksalad plant response rating (0 to 10 scale, 0 is no effect, 10 is complete control)",duck salad; [9],0
same,Ducksalad plant response rating,duck salad; [10],0
same,Ducksalad plant response rating,duck salad; [11],0
same,Wheat plant response rating,wheat; [1],0
same,Wheat plant response rating,wheat; [2],0
same,"Plant response rating, Wheat",wheat; [3],0
same,"Plant response rating, Wheat",wheat; [4],0
same,Wheat plant response rating,wheat; [5],0
same,Wheat plant response rating (0 to 10 scale),"wheat; Preemergence, Rate 250 g/ha",0
same,"Plant response rating, Wheat",wheat; [6],0
same,Morningglory plant response rating,morningglory; [1],2
same,Morningglory plant response rating,morningglory; [2],3
same,"Plant response rating, Morningglory",morningglory; [3],5
same,"Plant response rating, Morningglory",morningglory; [4],0
same,Morningglory plant response rating,morningglory; [5],0
same,Morningglory plant response rating (0 to 10 scale),"morningglory; Preemergence, Rate 250 g/ha",0
same,Morningglory plant response rating,morningglory; [7],3
same,"Plant response rating, Morningglory",morningglory; [6],5
same,"Plant response rating, S. Flatsedge (0 to 10 scale, 0 is no effect, 10 is complete control)",smallflower flatsedge; [8],0
same,"S. Flatsedge plant response rating (0 to 10 scale, 0 is no effect, 10 is complete control)",smallflower flatsedge; [9],0
same,S. Flatsedge plant response rating,smallflower flatsedge; [10],0
same,S. Flatsedge plant response rating,smallflower flatsedge; [11],0
same,Corn plant response rating,corn; [1],0
same,Corn plant response rating,corn; [2],0
same,"Plant response rating, Corn",corn; [3],0
same,"Plant response rating, Corn",corn; [4],0
same,Corn plant response rating,corn; [5],0
same,Corn plant response rating (0 to 10 scale),"corn; Preemergence, Rate 250 g/ha",0
same,Corn plant response rating,corn; [7],0
same,"Plant response rating, Corn",corn; [6],0
same,Cocklebur plant response rating,cocklebur; [1],0
same,Cocklebur plant response rating,cocklebur; [2],0
same,"Plant response rating, Cocklebur",cocklebur; [3],3
same,"Plant response rating, Cocklebur",cocklebur; [4],0
same,Cocklebur plant response rating,cocklebur; [5],0
same,Cocklebur plant response rating (0 to 10 scale),"cocklebur; Preemergence, Rate 250 g/ha",0
same,Cocklebur plant response rating,cocklebur; [7],0
same,"Plant response rating, Cocklebur",cocklebur; [6],2
same,Velvetleaf plant response rating,velvetleaf; [1],0
same,Velvetleaf plant response rating,velvetleaf; [2],4
same,"Plant response rating, Velvetleaf",velvetleaf; [3],5
same,"Plant response rating, Velvetleaf",velvetleaf; [4],0
same,Velvetleaf plant response rating,velvetleaf; [5],0
same,Velvetleaf plant response rating (0 to 10 scale),"velvetleaf; Preemergence, Rate 250 g/ha",0
same,Velvetleaf plant response rating,velvetleaf; [7],0
same,"Plant response rating, Velvetleaf",velvetleaf; [6],4
same,Redroot pigweed plant response rating,pigweed; [1],0
same,Redroot pigweed plant response rating,pigweed; [2],0
same,"Plant response rating, Redroot pigweed",pigweed; [3],0
same,"Plant response rating, Redroot pigweed",pigweed; [4],0
same,Redroot pigweed plant response rating,pigweed; [5],0
same,Redroot pigweed plant response rating (0 to 10 scale),"pigweed; Preemergence, Rate 250 g/ha",0
same,"Plant response rating, Redroot pigweed",pigweed; [6],0
same,Crabgrass plant response rating,crabgrass; [1],3
same,Crabgrass plant response rating,crabgrass; [2],9
same,"Plant response rating, Crabgrass",crabgrass; [3],10
same,"Plant response rating, Crabgrass",crabgrass; [4],7
same,Crabgrass plant response rating,crabgrass; [5],9
same,Crabgrass plant response rating (0 to 10 scale),"crabgrass; Preemergence, Rate 250 g/ha",10
same,Crabgrass plant response rating,crabgrass; [7],10
same,"Plant response rating, Crabgrass",crabgrass; [6],9
same,Blackgrass plant response rating,blackgrass; [1],0
same,Blackgrass plant response rating,blackgrass; [2],0
same,"Plant response rating, Blackgrass",blackgrass; [3],5
same,"Plant response rating, Blackgrass",blackgrass; [4],0
same,Blackgrass plant response rating,blackgrass; [5],0
same,Blackgrass plant response rating (0 to 10 scale),"blackgrass; Preemergence, Rate 250 g/ha",0
same,"Plant response rating, Blackgrass",blackgrass; [6],0
same,Soybean plant response rating,soybean; [1],3
same,Soybean plant response rating,soybean; [2],3
same,"Plant response rating, Soybean",soybean; [3],5
same,"Plant response rating, Soybean",soybean; [4],0
same,Soybean plant response rating,soybean; [5],0
same,Soybean plant response rating (0 to 10 scale),"soybean; Preemergence, Rate 250 g/ha",0
same,Soybean plant response rating,soybean; [7],0
same,"Plant response rating, Soybean",soybean; [6],5
